According to US20110212954A1, “ALPHA-LIPOIC ACID DERIVATIVES AND THEIR USE IN DRUG PREPARATION” (priority 2008, published 2011):

Legend:
diabetic rats = settings: diabetes type II models, high doses of α-LA (30 mg/kg in rats); cited from earlier work
[1] = in man, cited from earlier work
[2] = test system: human hepatocarcinoma cells (HepG2 cells); test: Evaluation of cell viability (ATPlite luminometric assay) and cell proliferation; format: cell-based; settings: 1 mM
Description: Dose-dependent concentration studies of the synthesized compounds were carried out and compared with the effects of alpha-lipoic acid, defined as reference standard, on human hepatocarcinoma cells (HepG2 cells) with the aim of evaluating their effects on cell viability.
Analysis by optical microscope enabled any morphological changes and accumulation of lipid vesicles to be determined as well as to evaluate cell proliferation or arrest.
A luminometric assay (ATPlite, Perkin Elmer), based on the production of light caused by a reaction with the intracellular ATP of viable cells, enabled the compounds to be classified on the basis of their viability index. In this respect, the signal detected by the luminometer is proportional to the number of viable cells. […]

HepG2 cells [3] = test: Variation in NADPH levels (total NADPH/NADP ratio), spectrophotometric kit; format: cell-based, human; settings: HepG2 cells, 5, 10, 100 and 500 μM, 72 hours
Excerpt: (§1) Although it is known that under hyperglycemic conditions α-LA induces AMPK activation in hepatic cells, the molecular mechanisms responsible for this biochemical process are not yet known. As envisaged in the description, the inventors of the present invention have advanced the hypothesis that AMPK activation by α-LA is the result of changes in the amount of NADH and NADHP present in cells, due to the interference of α-LA and/or its analogous derivatives in the oxidation-reduction processes. To verify this hypothesis, use was made of commercial kits (by Valter Occhiena) able to analyze the variations in the cellular amounts of NAD(P)H relative to total NAD(P), in the presence of increasing concentrations of the compounds under analysis (total NAD=NADH+NAD^+; total NADP=NADPH+NADP^+).

HepG2 cells [4] = test: Variation in NADH levels (total NADH/NAD ratio), spectrophotometric kit; format: cell-based, human; settings: 100 and 500 μm, 72 hours
Excerpt: as §1

Structure (SMILES)	glycemia in diabetic rats (diabetic rats)	bioavailability after oral administration ([1]; oral)	plasma half life (t1/2) [1] [min]	confluence reached by HepG2 cells (arrest of cell proliferation) [2]	effect on NADPH levels (FIG. 11) (HepG2 cells [3])	amount of NADH at high concentrations (FIG. 10) (HepG2 cells [4])
O=C(O)CCCC[C@@H]1CCSS1 (racemic) [α-LA, 1,2-dithiolane-3-pentanoic acid]	reduces glycemia	less than 30%	28	–	–	–
O=C(O)CCCC[C@@H]1CCSS1 [(R)-α-LA, (R)-alpha-lipoic acid, reference compound]	–	–	–	60-70%	influenced NADPH levels, in a dose dependent manner	decrease in NADH levels
